Nine compounds from patent publication US12643912B2, “Macrocyclic compounds, a process for their preparation and pharmaceutical compositions containing them” (LES LABORATOIRES SERVIER, priority 2020, dated 2026) can be followed below.

SMILES strings stand for the structures. Read-outs that look alike come from different tables or passages of the source.

One experiment concerns the target T1, Keap1 (A321-C624) (h) (Homo sapiens, UniProt Q14145).
T1 construct: His-Thromb-KEAP1(A321-C624) acquired from Novalix (batch PU-P01) was immobilized covalently by amine coupling; His tag (N); thrombin cleavage site (Thromb) (N); purchased Novalix batch PU-P01
As to the kind of experiment: Surface Plasmon Resonance binding assay to Kelch domain of KEAP1. The note with it: Biacore T200, 25° C., immobilized His-Thromb-KEAP1(A321-C624), single cycle kinetics, KD=kd/ka from 1:1 fit; read-out: Keap1 (A321-C624) (h) direct/SPR (KD). The essentials:
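His-Thromb-KEAP1(A321-C624) amine-coupled on CM5 chip to 1250 RU; amine blank reference. Run at 25° C in HEPES pH 7.4, 150 mM NaCl, 3 mM EDTA, 1 mM TCEP, 0.05% P20, 5% DMSO; 180 s association, 720 s dissociation, 50 μL/min. KD = kd/ka from 1:1 kinetic fit, double-referenced, DMSO solvent-corrected.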
For orientation: SPR reads the build-up and loss of mass on a sensor chip optically.

Experiment [1] concerns Nrf2 (Keap1-NRF2 nuclear translocation). As to the kind of experiment: U2OS translocation assay (PathHunter U2OS Keap1-NRF2 Nuclear Translocation Cell Line). The format is cell-based. The gist of the method:
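PathHunter U2OS line expressing Nrf2-enzyme-donor fusion and nuclear acceptor enzyme, 7 500 cells/well in Opti-MEM, 1% FBS. Compounds incubated 3 h at 37° C. Luminescence after 60 min with detection reagent, normalized between 1% DMSO and 10 μM andrographolide.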

[2] abbreviates: read-out: CELLULAR U2OS EC50, U2OS Keap1-NRF2 nuclear translocation cells, 3 h incubation, luminescence, normalized between 1% DMSO and 10 μM andrographolide.
The mark [3] stands for this setting: Homo sapiens, U2OS, 3 h, read-out: CELLULAR U2OS EC50 (nM), U2OS Keap1-NRF2 nuclear translocation cells, 3 h incubation, luminescence, normalized between 1% DMSO and 10 μM andrographolide.

A word on the EC50: it is the concentration that produces a half-maximal response.

T1 sequence (Q14145 321-624): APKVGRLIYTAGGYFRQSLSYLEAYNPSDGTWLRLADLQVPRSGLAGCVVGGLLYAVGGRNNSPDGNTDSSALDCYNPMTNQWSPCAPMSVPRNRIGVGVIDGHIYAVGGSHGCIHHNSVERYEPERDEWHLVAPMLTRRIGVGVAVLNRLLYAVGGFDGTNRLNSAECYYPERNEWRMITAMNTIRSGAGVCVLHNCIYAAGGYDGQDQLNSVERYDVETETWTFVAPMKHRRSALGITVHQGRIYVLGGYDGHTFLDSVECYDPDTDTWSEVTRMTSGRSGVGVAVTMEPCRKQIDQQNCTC

With `COc1c(Cl)cc2cc1CN1Cc3cc(ccc3OS1(=O)=O)OCCCCn1nnc3c(C)c(ccc31)C2CC(=O)O` (single isomer, unassigned) [Example 37b, [5-Chloro-4-methoxy-31-methyl-27,27-dioxo-21,26-dioxa-27λ^6-thia-1,14,15,16-tetraazahexacyclo[20.5.3.1^3,70.1^9,130.0^12,160.0^25,29]dotriaconta-3(32),4,6,9(31),10,12,14,22,24,29-decaen-8-yl]acetic acid], the Kd on Keap1 (A321-C624) (h) turned out to be 529 nM. Moreover, in experiment [1] (setting [2]), the EC50 was > 3160 nM.
With `COc1cc2cc(c1Cl)CN1Cc3cc(ccc3OS1(=O)=O)OCCCCn1nnc3c(C)c(ccc31)C2CC(=O)O` (single isomer, unassigned) [Example 38b, [4-Chloro-5-methoxy-31-methyl-27,27-dioxo-21,26-dioxa-27λ^6-thia-1,14,15,16-tetraazahexacyclo[20.5.3.1^3,70.1^9,130.0^12,160.0^25,29]dotriaconta-3(32),4,6,9(31),10,12,14,22,24,29-decaen-8-yl]acetic acid], the Kd at Keap1 (A321-C624) (h) came out at 604 nM. For the same compound, in experiment [1] (setting [3]), the concentration for a half-maximal effect (EC50) is > 3160 nM.
For `Cc1ccc2cc1CN1Cc3cc(ccc3N(C)S1(=O)=O)OCCCCn1nnc3c(C)c(ccc31)C2CC(=O)O` (single isomer, unassigned) [Example 39a, [4,26,31-Trimethyl-27,27-dioxo-21-oxa-27λ^6-thia-1,14,15,16,26-pentaazahexacyclo[20.5.3.1^3,70.1^9,130.0^12,160.0^25,29]dotriaconta-3(32),4,6,9(31),10,12,14,22,24,29-decaen-8-yl]acetic acid], the Kd at Keap1 (A321-C624) (h) worked out at 0.137 nM. Besides, the EC50 in experiment [1] (setting [2]) was found to be 14.2 nM.
Turning to `Cc1ccc2cc1CN1Cc3cc(ccc3N(C)S1(=O)=O)OCCCCn1nnc3c(C)c(ccc31)C2CC(=O)O` (single isomer, unassigned) [Example 39b, [4,26,31-Trimethyl-27,27-dioxo-21-oxa-27λ^6-thia-1,14,15,16,26-pentaazahexacyclo[20.5.3.1^3,70.1^9,130.0^12,160.0^25,29]dotriaconta-3(32),4,6,9(31),10,12,14,22,24,29-decaen-8-yl]acetic acid], at Keap1 (A321-C624) (h), the Kd is 0.685 nM. Also, the EC50 in experiment [1] (setting [2]) came out at 79.5 nM.
In the same order, the values of `Cc1ccc2cc1CN1Cc3cc(ccc3OS1(=O)=O)OC[C@H](C)CCn1nnc3c(C)c(ccc31)C2CC(=O)O` (single isomer, unassigned) [Example 45a] are 0.594 nM and 11.8 nM.
In the same order, the values of `Cc1ccc2cc1CN1Cc3cc(ccc3OS1(=O)=O)OC[C@H](C)CCn1nnc3c(C)c(ccc31)C2CC(=O)O` (single isomer, unassigned) [Example 45b] are 2.35 nM and 144 nM.
In the same order, the values of `COc1ccc2cc1CN1Cc3cc(ccc3OS1(=O)=O)OCc1ccccc1OCCCCn1nnc3c(C)c(ccc31)C2CC(=O)O` (single isomer, unassigned) [Example 53a, [4-Methoxy-39-methyl-35,35-dioxo-21,29,34-trioxa-35λ^6-thia-1,14,15,16-tetraazaheptacyclo[28.5.3.1^3,70.1^9,130.0^12,160.0^22,270.0^33,37]tetraconta-3(40),4,6,9(39),10,12,14,22,24,26,30,32,37-tridecaen-8-yl]acetic acid] are 47.7 nM and 369 nM.
On to `COc1ccc2cc1CN1Cc3cc(ccc3OS1(=O)=O)OCc1ccccc1OCCCCn1nnc3c(C)c(ccc31)C2CC(=O)O` (single isomer, unassigned) [Example 53b, [4-Methoxy-39-methyl-35,35-dioxo-21,29,34-trioxa-35λ^6-thia-1,14,15,16-tetraazaheptacyclo[28.5.3.1^3,70.1^9,130.0^12,160.0^22,270.0^33,37]tetraconta-3(40),4,6,9(39),10,12,14,22,24,26,30,32,37-tridecaen-8-yl]acetic acid], for which, at Keap1 (A321-C624) (h), the Kd is 176 nM. Besides, the EC50 in experiment [1] (setting [2]) was 899 nM.
Turning to `COc1ccc2cc1CN1Cc3cc(ccc3OS1(=O)=O)OCc1ccccc1SCCCCn1nnc3c(C)c(ccc31)C2CC(=O)O` (single isomer, unassigned) [Example 54a], at Keap1 (A321-C624) (h), the Kd was determined as 90.5 nM. Further, the EC50 in experiment [1] (setting [3]) amounted to 1290 nM.
